This note sets out measurements from patent US20220288068A1, “PHARMACEUTICAL PREPARATION” (MERCK PATENT GMBH, priority 2019, published 2022).

Data set [1] can be described thus: Solubility in biorelevant media (FaSSIF, FeSSIF). The method, then: Despite such low solubility rather high doses of far above 100 mg are needed for its use in the therapy. […] Accordingly, a pharmaceutical preparation for oral administration must have a high bioavailability to provide the high doses that are needed to achieve the desired therapeutic effect. Otherwise the pharmaceutical preparation would need to have an increased size not usable for its oral administration due to problems with its swallowability.

A short description of data set [2]: Solubility in oils for SEDDS/SMEDDS. Type of data set: physicochemical. The following applies: oil or lipid; neutral oil. The method, then: Due to the relatively high doses necessary for therapeutic effect (approximately 500 mg) and a maximal dose in a self-emulsifying capsule formulation (SEDDS or SMEDDS) of not more than 5 mg, the patient would have to take 100 capsules to achieve the target dose.

The nature of data set [3]: Young's modulus by ultrasound-assisted instrumented single punch press. As to conditions: neat substance, in dependence of solid fraction; FIG. 3 and FIG. 4. Type of data set: physicochemical. The method, then:
Young's modulus is assessed as an indicator for material stiffness (the higher Young's modulus, the more rigid a substance is) whereby its measurement is done in dependence of the solid fraction, which is complementary to porosity (i.e. solid fraction=1−porosity fraction). With this, a solid fraction of 1 indicates no porosity, i.e. no air entrapped in the solid phase. Pharmaceutical relevant solid fractions usually range from 0.75 to 0.85. Porosities have been determined by nitrogen pycnometry.
The measurements to determine the Young's modulus are conducted on a commercially available instrumented single punch press (Romaco Kilian StylOne system) with ultrasound-assisted measurement punches. For this purpose, neat substances are compacted between the upper and the lower punch, leading to densification of the material. The ultrasound velocity in the sample in dependence of the degree of densification is recorded and used for calculation of Youngs modulus of the specific substance.

Values after ≈ are worked out from the molar mass of the structure shown. Bounds are passed on as bounds.

By solubility is commonly meant the concentration that dissolves in the medium under given conditions. Turning to `CN1CCC(COc2cnc(-c3cccc(Cn4nc(-c5cccc(C#N)c5)ccc4=O)c3)nc2)CC1` [3-(1-{3-[5-(1-Methyl-piperidin-4-ylmethoxy)-pyrimidin-2-yl]-benzyl}-6-oxo-1,6-dihydro-pyridazin-3-yl)-benzonitrile], the BCS classification entry in data set [1] (Amidon et al., 1995) is recorded as “BCS IV”. Also, the results for the solubility in data set [1] (fassif) and in data set [2] were 43 µg/mL (≈ 87.3 µM) and under 5000 µg/mL, respectively. The “Young's modulus (elastic properties)” value in data set [3] is given as “distinct lower Young's moduli compared to widely used pharmaceutical fillers”.
